Measurements published in patent publication US20060134213A1 (priority 2004, published 2006).

Assay: Clinical single-dose crossover study: relative bioavailability and dose proportionality from plasma ramipril and ramiprilat, tablets vs ALTACE capsules
Type: in vivo, human
[1] = doses increased from 2.5 to 20 mg

Procedure: The study followed a single-dose, open-label, four-period, four-treatment, crossover design and utilized a two-stage randomization process for 4 dose levels and 2 formulations. Each treatment was separated by a 2 week washout period. All treatments were administered following an overnight fast.
Thirty subjects were planned to be enrolled in the study to complete 24.
The ANOVA model included subject, period and formulation as fixed effects, and subject as a random effect. […] The ratios of LSM and CI were expressed as a percentage relative to the commercial capsules (ALTACE®).
Separately for the test (A, C, E, and G) and reference (B, D, F, and H) formulations, dose proportionality was evaluated. […] The ANOVA model included period as a fixed effect, intercept as a random effect, and in-transformed dose as a covariate.

C[C@H](N[C@@H](CCc1ccccc1)C(=O)O)C(=O)N1[C@H](C(=O)O)C[C@@H]2CCC[C@@H]21 [ramiprilat]
increase of AUC0-24 with dose (geometric means) [1]: proportional
increase of Cmax with dose (geometric means) [1]: more than proportional increase
increase of AUC0-t and AUC0-48 with dose (geometric means) (ramipril doses 2.5 to 20 mg): less than proportional increase
